Assay [1] has as its system BxPC3 and HPAFII tumor cells co-cultured with macrophages. Put plainly: Cytokine and chemokine production in macrophage co-culture with treated BxPC3 and HPAFII cells. In kind it is cell-based. Conditions: BxPC3 and HPAFII co-culture supernatant 24 hours, ELISA, normalized to untreated. How it is done:
Supernatant from the co-culture of macrophages and dying tumor cells was harvested 24 hours later and assayed for levels of cytokine and chemokine production by ELISA and normalized to macrophages that were co-cultured with untreated tumor cells.

Assay [2] concerns MiaPaca-CHOP-luciferase cells. Kind of assay: CHOP-driven luciferase reporter assay of severe ER stress. The assay is classed as cell-based. To be noted: after 16 hours. How it is done:
Severe ER stress leads to upregulation of CHOP, and initiates mitochondrial apoptosis. MiaPaca2 pancreatic tumor cells were engineered to express a CHOP-driven luciferase reporter system (purchased from Signosis, Inc.) that allows for quantifiable monitoring of severe ER stress. MiaPaca-CHOP-luciferase cells were treated with MMAE, vincristine, and Paclitaxel, and assayed for luciferase expression after 16 hours.
(Reporter assays use an easily measured gene product as a stand-in for the process of interest.)

Assay [3] deals with MiaPaca-CHOP-luciferase cells subcutaneously engrafted. Kind of assay: Tumoral CHOP luciferase signal in engrafted MiaPaca-CHOP-luciferase tumors. The assay is classed as in vivo, NOD/SCID/gamma-chain deficient mice. Conditions: intratumorally; MMAE 0.36 mg/kg, vincristine 1.0 mg/kg, Paclitaxel 10 mg/kg. How it is done: MiaPaca-CHOP-luciferase cells were subcutaneously engrafted into NOD/SCID/gamma-chain deficient mice. Subcutaneous tumors were treated intratumorally with MMAE (0.36 mg/kg), vincristine (1.0 mg/kg), and Paclitaxel (10 mg/kg) and tumoral luciferase signal was monitored over time.

For a further assay, the system named is U-266 cells. Kind of assay: Cell surface ICD markers (HSP70, calreticulin) on AnnexinV negative U-266 cells. In kind it is cell-based. To be noted: 48 hours, MMAE 492 nM, SGN-CD48A 10 ng/ml. How it is done:
U-266 cells were treated for 48 hours with free MMAE (492 nM), an MMAE-containing ADC (SGN-CD48A, 10 ng/ml), and a non-binding MMAE-ADC (10 ng/ml) for 48 hours. Cells were harvested, washed in flow buffer, and subsequently stained for both AnnexinV, a marker for apoptosis, and HSP70. Cells were also stained with both AnnexinV and calreticulin. In both conditions, cells that were AnnexinV negative were selected and the percent population that was positive for HSP70 or calreticulin were determined.

The subject of a further assay is BxPC-3 cells. Put plainly: ATP secretion from BxPC-3 cells. In kind it is cell-based. To be noted: 17 hours.
Assay [4] concerns Hep3b, Huh7, and JHH7 cells. Put plainly: ATP secretion from liver tumor lines. Conditions: Huh7, JHH7, 24 hours. In kind it is cell-based. As for the experimental part:
(§1) Liver tumor lines Hep3b, Huh7, and JHH7 cells were treated with MMAE, Tubulysin M, vincristine, and Paclitaxel for 24 hours and analyzed for ATP secretion. […] Cells were washed and harvested, and subsequently co-cultured with enriched macrophages prepared as above. Macrophages were harvested 4 days after co-culture and assayed for immune activation by flow cytometry. Levels of costimulation (as measured by CD86 expression, JHH7) and antigen-presentation (as measured by frequency of MHCII-expressing cells, Hep3b, Huh7, and JHH7) were quantified and normalized to macrophages that were co-cultured with […]. […] Supernatant from the co-culture of macrophages and dying liver tumor cells was harvested 24 hours later and assayed for levels of cytokine and chemokine production by ELISA and normalized to macrophages that were co-cultured with untreated tumor cells.

Assay [5] relates to MCF7 cells co-cultured with macrophages. Kind of assay: Cytokine and chemokine production in macrophage co-culture with treated MCF7 cells. The assay is classed as cell-based. To be noted: MCF7 co-culture supernatant 24 hours, ELISA, normalized to untreated. How it is done:
MCF7 […] cells were treated with MMAE, an MMAE-containing ADC (anti-CD71 OKT9-1006), vincristine, and Paclitaxel for 24 hours. Cells were washed and harvested, and subsequently co-cultured with the enriched macrophages prepared above. Macrophages were harvested 4 days after co-culture and assayed for immune activation by flow cytometry. […] Supernatant from the co-culture of macrophages and dying MCF7 cells was harvested 24 hours later and assayed for levels of cytokine and chemokine production by ELISA and normalized to macrophages that were co-cultured with untreated tumor cells.
For orientation: In an ELISA, binding on a coated surface is turned into a signal by an enzyme label.

The next assay has as its system T-24 (bladder) cells. Put plainly: ATP secretion from T-24 cells. The assay is classed as cell-based. To be noted: 48 hours. How it is done: (§2) T-24 (bladder) cells were treated with MMAE or an MMAE-containing ADC (ASG-22ME) for 48 hours and analyzed for ATP secretion. […] T-24 cells were also treated with MMAE, an MMAE-containing ADC (ASG22ME, Enfortumab vedotin), vincristine, and Paclitaxel for 24 hours. Cells were washed and harvested, and subsequently co-cultured with the enriched macrophages as above. Macrophages were harvested 4 days after co-culture and assayed for immune activation by flow cytometry. Level of antigen-presentation (as measured by frequency of MHCII-expressing macrophages) was quantified and normalized to macrophages that were co-cultured with untreated tumor cells. […] Supernatant from the co-culture of macrophages and dying T-24 tumor cells was harvested after 24 hours and assayed for levels of cytokine and chemokine production by ELISA and normalized to macrophages that were co-cultured with untreated tumor cells.

Assay [6] deals with HeLa cervical cancer cells. Put plainly: Western blot analysis of ER stress in HeLa cells. The assay is classed as cell-based. Conditions: 1000 nM or 100 nM, 16 hours. How it is done:
HeLa cervical cancer cells were treated with 1000 nM or 100 nM MMAE, Vincristine, or Paclitaxel for 16 hours and harvested for western blot analysis.
A general note: Immunoblotting shows a protein as a band on a membrane.

The test system of assay [7] is A2058, SK-MEL-5, SK-MEL-28 (skin) cell lines. Kind of assay: ATP secretion in skin cell lines. To be noted: A2058, SK-MEL-5, SK-MEL-28, after 17 hours. In kind it is cell-based. As for the experimental part:
Skin tumor lines A2058, SK-MEL-5 and SK-MEL-28, Calu-1 (lung), HT-1080 (fibrosarcoma), SK-MES-1 (lung), and BXPC3 (pancreas) cells were treated with MMAE, vincristine, and Paclitaxel. Supernatant was collected after 17 hours of treatment, and analyzed for ATP secretion.

Assay [8] has as its system Hep3b, Huh7, and JHH7 cells co-cultured with macrophages. Put plainly: Macrophage costimulation/antigen presentation after co-culture with treated liver tumor cells. The assay is classed as cell-based. Conditions: macrophages harvested 4 days after co-culture; normalized to Paclitaxel-treated tumor cells. As for the experimental part: as §1
Assay [9] concerns T-24 cells co-cultured with macrophages. Put plainly: Macrophage antigen presentation after co-culture with treated T-24 cells. In kind it is cell-based. Conditions: T-24 treated 24 hours; macrophages harvested 4 days after co-culture. How it is done:
as §2

Another assay concerns PC-3 cells. Kind of assay: Western blot analysis of ER stress in PC-3 cells. The assay is classed as cell-based. Conditions: 24 hours. How it is done:
PC-3 prostate tumor cells were also treated with MMAE, Vincristine, or Paclitaxel. Supernatant was collected after 16 hours of treatment, and analyzed for ATP secretion. […] PC-3 cells were treated for 24 hours with an MMAE-containing ADC (SGN-LIV1A) or MMAE and harvested in RIPA buffer for western blot analysis (FIG. 3C).

Assay [10] has as its system A2058 and SK-MEL-5 tumor cells co-cultured with macrophages. Put plainly: Cytokine and chemokine production in macrophage co-culture with treated A2058 and SK-MEL-5 cells. The assay is classed as cell-based. Conditions: A2058 and SK-MEL-5 co-culture supernatant 24 hours, ELISA, normalized to untreated. As for the experimental part:
Supernatant from the co-culture of macrophages and dying A2058 and SK-MEL-5 tumor cells was harvested 24 hours later and assayed for levels of cytokine and chemokine production by ELISA and normalized to macrophages that were co-cultured with untreated tumor cells.

“Also recorded” adds a separate entry of the source. Non-standard residues stand in square brackets, D forms with d. Residues, ends and D or L forms follow the SMILES beside them. *: point of attachment. Dolaproine = CO[C@@H]([C@@H]1CCCN1)[C@@H](C)C(=O)O; Dil = CC[C@H](C)[C@H](NC)[C@@H](CC(=O)O)OC; X1 = C[C@@H](N*)[C@@H](O)c1ccccc1; NMeV = CN[C@H](C(=O)O)C(C)C

Turning to `CC[C@H](C)[C@@H]([C@@H](CC(=O)N1CCC[C@H]1[C@H](OC)[C@@H](C)C(=O)N[C@H](C)[C@@H](O)c1ccccc1)OC)N(C)C(=O)[C@@H](NC(=O)[C@@H](NC)C(C)C)C(C)C` [MMAE, monomethyl auristatin E] (H-[NMeV]V[Dil][Dolaproine]-X1), the “Cytokine and chemokine production” value in [1] was “increase of the indicated cytokines and chemokines that was more robust than treatment with Paclitaxel”; in assay [5] it was “increase of the indicated cytokines and chemokines that was more robust than treatment with Paclitaxel”; in [10] it was “increase of the indicated cytokines and chemokines that was more robust than treatment with Paclitaxel”. In addition, the “Luciferase signal as a proxy of severe ER stress induction” value in assay [2] is on record as “dose-dependent increase in luciferase signal”. Further, the “Severe ER stress in engrafted tumors (tumoral luciferase signal over time)” value in assay [3] is recorded as “rapidly elicited severe ER stress”. The “Percentage of ICD markers (HSP70, calreticulin) on the cell surface of AnnexinV negative cells” value in the assay on U-266 cells is reported as “increase in the percentage of ICD markers”. Further, the ATP secretion entry in the assay with BxPC-3 cells is “equivalent levels of ATP secretion”; in the assay with T-24 (bladder) cells it was “potent ATP secretion”. In addition, the “ATP secretion (cell lines responding)” value in [4] was “potent ATP secretion from 3 of 3 cell lines evaluated”. For the same compound, the “ER stress responses (phosphorylation of IRE1)” value in [6] was “activated ER stress responses”. Also, in [6], the “Severe ER stress response (phosphorylation of JNK)” value is “more severe ER stress response that was sustained with decreasing doses”. The “ATP secretion (skin cell lines responding)” value in assay [7] is given as “potent ATP secretion from all 3”. Also, in assay [8], the “Immune-activation (CD86 expression, JHH7; MHCII-expressing cells, Hep3b, Huh7, JHH7)” value is listed as “increase in immune-activation in 3/3 tumor cell lines that was more robust than Paclitaxel”. Further, the “Macrophage antigen presentation (frequency of MHCII-expressing macrophages)” value in [9] is listed as “increase in macrophage antigen presentation that was more robust than treatment with Paclitaxel”. Also, the “ER stress (phosphorylation of IRE1 and JNK)” value with PC-3 cells is “elicits ER stress (phosphorylation of IRE1 and JNK); also recorded: elicits ER stress (phosphorylation of IRE1 and INK)”.

These data come from patent US20230110128A1, “USE OF ANTIBODY DRUG CONJUGATES COMPRISING TUBULIN DISRUPTING AGENTS TO TREAT SOLID TUMOR” (Seagen Inc., priority 2018, published 2023).
